Where two headings read alike, the source gives them in different places.
Key:
ML-2 (MLL-AF6) cells = test: Cell proliferation (alamarBlue) ML-2; assay type: cell-based
Protocol: (§1) Cells were seeded in the optimal growth medium at 4000–5000 cells/well in a 96 MTP and cultured 18–24 h before inhibitor treatment.

EOL-1 (MLL-TD) cells = test: Cell proliferation (alamarBlue) EOL-1; assay type: cell-based; details: Homo sapiens
Protocol: as §1

[1] = test system: MLL-fused cell lines (MV4-11, MOLM-13); test: CD11b protein expression by flow cytometry, MLL-fused lines; assay type: cell-based; details: 4 and 7 days of treatment
Method in brief: (§2)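 Cells seeded 24 h before inhibitor treatment lasting 4 or 7 days. Then stained with CD11b-APC plus DAPI, or AnnexinV-FITC plus PI, and analysed by flow cytometry.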

[2] = test system: MV4-11, MOLM-13 and HL-60 cells; test: Cell proliferation, all three tested AML cell lines; assay type: cell-based; details: 96 h, read-out: anti-proliferation IC50s
Protocol: Cells were seeded in the optimal growth medium at 4000–5000 cells/well in a 96 MTP and cultured 18–24 h before inhibitor treatment. Upon treatment with the indicated inhibitor, cells were cultured for 24 h, 96 h, and 168 h and effects on proliferation were determined using alamarBlue Cell Viability Reagent (Thermo Fisher Scientific, Waltham, MA, USA).

HL-60 (MLL-WT) cells = test: Cell proliferation (alamarBlue) HL-60; assay type: cell-based; details: Homo sapiens, read-out: IC50 proliferation
Protocol: as §1

HL-60 cells = test: CD11b protein expression by flow cytometry, HL-60; assay type: cell-based; details: non-fused HL-60 cell line, 4 and 7 days of treatment
Method in brief: as §2

MOLM-14 (MLL-AF9) cells = test: Cell proliferation (alamarBlue) MOLM-14; assay type: cell-based; details: Homo sapiens
Protocol: as §1

KOPN-8 (MLL-ENL) cells = test: Cell proliferation (alamarBlue) KOPN-8; assay type: cell-based; details: Homo sapiens
Protocol: as §1

SEM (MLL-AF4) cells = test: Cell proliferation (alamarBlue) SEM; assay type: cell-based
Protocol: as §1

OCI-AML-3 (MLL-WT) cells = test: Cell proliferation (alamarBlue) OCI-AML-3; assay type: cell-based; details: Homo sapiens
Protocol: as §1

DHODH = test system: DHODH; set-up: method as in PMID 2743343; details: read-out: On target Potency IC50; cited from earlier work
MOLM-13 (MLL-AF9) cells = test: Cell proliferation (alamarBlue) MOLM-13; assay type: cell-based; details: Homo sapiens
Protocol: as §1

Jurkat (MLL-WT) cells = test: Cell proliferation (alamarBlue) Jurkat; assay type: cell-based; details: Homo sapiens
Protocol: as §1

[3] = test system: OCI-AML-2 (MLL-AF9) cells; test: Cell proliferation (alamarBlue) OCI-AML-2; assay type: cell-based; details: Homo sapiens
Protocol: as §1

[4] = test system: MV4-11, MOLM-13 and HL-60 cells; test: Cell cycle analysis (PI, flow cytometry); assay type: cell-based; details: 4 days of treatment (Figure S2)
Protocol: Cells were washed with PBS and fixed overnight at − 20 °C with 70% ethanol. Fixed cells were stained with PI solution (Sigma-Aldrich St. Louis, MO, USA) solution containing RNase A (Qiagen, Hilden, Germany). Fluorescence was measured with FACS Canto II (BD Biosciences, Heidelberg, Germany) flow cytometer and data was analyzed with FACSDiva software.

RS4;11 (MLL-AF4) cells = test: Cell proliferation (alamarBlue) RS4;11; assay type: cell-based; details: Homo sapiens, RS4-11, read-out: IC50 proliferation, RS4;11 (MLL-AF4)
Protocol: as §1

NOMO-1 (MLL-AF9) cells = test: Cell proliferation (alamarBlue) NOMO-1; assay type: cell-based; details: Homo sapiens
Protocol: as §1

OCI-AML-5 (MLL-WT) cells = test: Cell proliferation (alamarBlue) OCI-AML-5; assay type: cell-based; details: Homo sapiens
Protocol: as §1

MV4-11 (MLL-AF4) cells = test: Cell proliferation (alamarBlue) MV4-11; assay type: cell-based; details: Homo sapiens
Protocol: as §1

- IC50 [2]: 30 to 140 nM
- IC50 (HL-60 (MLL-WT) cells; HL-60, 24 h): > 10000 nM
- IC50 (HL-60 (MLL-WT) cells; HL-60, 96 h): 800 nM
- IC50 (HL-60 (MLL-WT) cells; HL-60, 168 h): 270 nM
- IC50 (MOLM-14 (MLL-AF9) cells; MOLM-14, read-out: IC50 proliferation, MOLM-14 (MLL-AF9), D1): > 10000 nM
- IC50 (MOLM-14 (MLL-AF9) cells; MOLM-14, read-out: IC50 proliferation, MOLM-14 (MLL-AF9), D4): 320 nM
- IC50 (MOLM-14 (MLL-AF9) cells; MOLM-14, read-out: IC50 proliferation, MOLM-14 (MLL-AF9), D7): 180 nM
- IC50 (OCI-AML-3 (MLL-WT) cells; OCI-AML-3, read-out: IC50 proliferation, OCI-AML-3 (MLL-WT), D1): > 10000 nM
- IC50 (OCI-AML-3 (MLL-WT) cells; OCI-AML-3, read-out: IC50 proliferation, OCI-AML-3 (MLL-WT), D4): 200 nM
- IC50 (OCI-AML-3 (MLL-WT) cells; OCI-AML-3, read-out: IC50 proliferation, OCI-AML-3 (MLL-WT), D7): 240 nM
- IC50 (MOLM-13 (MLL-AF9) cells; MOLM-13, read-out: IC50 proliferation, MOLM-13 (MLL-AF9), D1): > 10000 nM
- IC50 (MOLM-13 (MLL-AF9) cells; MOLM-13, read-out: IC50 proliferation, MOLM-13 (MLL-AF9), D4): 110 nM
- IC50 (MOLM-13 (MLL-AF9) cells; MOLM-13, read-out: IC50 proliferation, MOLM-13 (MLL-AF9), D7): 220 nM
- IC50 (Jurkat (MLL-WT) cells; read-out: IC50 proliferation, Jurkat (MLL-WT), D1): > 10000 nM
- IC50 (Jurkat (MLL-WT) cells; read-out: IC50 proliferation, Jurkat (MLL-WT), D4): 30 nM
- IC50 (Jurkat (MLL-WT) cells; read-out: IC50 proliferation, Jurkat (MLL-WT), D7): 50 nM
- IC50 ([3]; OCI-AML2, read-out: IC50 proliferation, OCI-AML-2 (MLL-AF9), D1): > 10 µM
- IC50 ([3]; OCI-AML2, read-out: IC50 proliferation, OCI-AML-2 (MLL-AF9), D4): > 10 µM
- IC50 ([3]; OCI-AML2, read-out: IC50 proliferation, OCI-AML-2 (MLL-AF9), D7): > 10 µM
- IC50 (RS4;11 (MLL-AF4) cells; D1): > 10 µM
- IC50 (RS4;11 (MLL-AF4) cells; D4): 1.1 µM
- IC50 (RS4;11 (MLL-AF4) cells; D7): > 10 µM
- IC50 (OCI-AML-5 (MLL-WT) cells; OCI-AML-5, read-out: IC50 proliferation, OCI-AML-5 (MLL-WT), D1): > 10 µM
- IC50 (OCI-AML-5 (MLL-WT) cells; OCI-AML-5, read-out: IC50 proliferation, OCI-AML-5 (MLL-WT), D4): > 10 µM
- IC50 (OCI-AML-5 (MLL-WT) cells; OCI-AML-5, read-out: IC50 proliferation, OCI-AML-5 (MLL-WT), D7): > 10 µM
- IC50 (MV4-11 (MLL-AF4) cells; MV4-11, read-out: IC50 proliferation, MV4-11 (MLL-AF4), D1): > 10000 nM
- IC50 (MV4-11 (MLL-AF4) cells; MV4-11, read-out: IC50 proliferation, MV4-11 (MLL-AF4), D4): 100 nM
- IC50 (MV4-11 (MLL-AF4) cells; MV4-11, read-out: IC50 proliferation, MV4-11 (MLL-AF4), D7): 220 nM
SMILES: Cc1c(-c2ccc(-c3ccccc3F)cc2)nc2ccc(F)cc2c1C(=O)O [Brequinar]
- IC50 (ML-2 (MLL-AF6) cells; read-out: IC50 proliferation, ML-2 (MLL-AF6), D1): > 10000 nM
- IC50 (ML-2 (MLL-AF6) cells; read-out: IC50 proliferation, ML-2 (MLL-AF6), D4): 500 nM
- IC50 (ML-2 (MLL-AF6) cells; read-out: IC50 proliferation, ML-2 (MLL-AF6), D7): 310 nM
- IC50 (EOL-1 (MLL-TD) cells; EOL1, read-out: IC50 proliferation, EOL-1 (MLL-TD), D1): > 10000 nM
- IC50 (EOL-1 (MLL-TD) cells; EOL1, read-out: IC50 proliferation, EOL-1 (MLL-TD), D4): 380 nM
- IC50 (EOL-1 (MLL-TD) cells; EOL1, read-out: IC50 proliferation, EOL-1 (MLL-TD), D7): 110 nM
- CD11b protein level [1]: increased CD11b protein level in a dose and time-dependent manner
- CD11b level (HL-60 cells): treatment did
- IC50 (KOPN-8 (MLL-ENL) cells; KOPN-8, read-out: IC50 proliferation, KOPN-8 (MLL-ENL), D1): > 10000 nM
- IC50 (KOPN-8 (MLL-ENL) cells; KOPN-8, read-out: IC50 proliferation, KOPN-8 (MLL-ENL), D4): 300 nM
- IC50 (KOPN-8 (MLL-ENL) cells; KOPN-8, read-out: IC50 proliferation, KOPN-8 (MLL-ENL), D7): 360 nM
- IC50 (SEM (MLL-AF4) cells; read-out: IC50 proliferation, SEM (MLL-AF4), D1): > 10000 nM
- IC50 (SEM (MLL-AF4) cells; read-out: IC50 proliferation, SEM (MLL-AF4), D4): 190 nM
- IC50 (SEM (MLL-AF4) cells; read-out: IC50 proliferation, SEM (MLL-AF4), D7): 250 nM
- cell cycle effect [4]: slight S-phase arrest at lower concentrations
- IC50 (NOMO-1 (MLL-AF9) cells; NOMO-1, read-out: IC50 proliferation, NOMO-1 (MLL-AF9), D1): > 10000 nM
- IC50 (NOMO-1 (MLL-AF9) cells; NOMO-1, read-out: IC50 proliferation, NOMO-1 (MLL-AF9), D4): 270 nM
- IC50 (NOMO-1 (MLL-AF9) cells; NOMO-1, read-out: IC50 proliferation, NOMO-1 (MLL-AF9), D7): 130 nM
